Drawing on ChEMBL document CHEMBL4665840, “New antibacterial cadiolide analogues active against antibiotic-resistant strains” (Bioorg Med Chem Lett, 2020), this text covers Activity and MIC for 16 molecules.

For data set [1], the system named is HaCaT. In words: Cytotoxicity against human HaCaT cells at 160 ug/ml incubated for 24 hrs by LDH release assay (reference value: 23.7 +/- 1.4%). In kind it is cell-based. The note with it: at 160 µg/mL. On the technique in general: Release of lactate dehydrogenase indicates damage to the cell membrane.
Data set [2] deals with Staphylococcus aureus. In words: Antibacterial activity against Staphylococcus aureus EMRSA17. It is filed as functional.
The test system of data set [3] is Enterococcus faecalis. As to the kind of experiment: Antibacterial activity against vancomycin-resistant Enterococcus faecalis. It is filed as functional.
Data set [4] has as its system Staphylococcus aureus. As to the kind of experiment: Antibacterial activity against Staphylococcus aureus NCTC12493.
Another data set deals with Micrococcus luteus. In words: Antibacterial activity against Micrococcus luteus. In kind it is functional.
The test system of data set [5] is Enterococcus faecalis. As to the kind of experiment: Antibacterial activity against Enterococcus faecalis NCTC12697. It is filed as functional.
For the next data set, the system named is Bacillus cereus. As to the kind of experiment: Antibacterial activity against Bacillus cereus. In kind it is functional.
A further data set relates to Bacillus subtilis. In words: Antibacterial activity against Bacillus subtilis. It is filed as functional.
Data set [6] concerns HaCaT. In words: Cytotoxicity against human HaCaT cells at 160 ug/ml incubated for 24 hrs by LDH release assay. In kind it is cell-based. The following applies: dose 160 µg/ml.

≈ marks a conversion by molar mass, not a printed value.

In general, MIC refers to the lowest concentration that inhibits growth of the organism. Low readings indicate inhibition by little substance, high ones a need for much substance.

Consider `CCCN1C(=O)C(C(=O)c2ccco2)=C(c2ccc(O)c(Br)c2)C1=Cc1ccc(O)c(Br)c1` (mixture of isomers), for which, in the data set with HaCaT [1], the Activity amounted to 55.7%. Besides, the MIC stood at 16 mg/L against Staphylococcus aureus [2]; 16 mg/L with Enterococcus faecalis [3]; 8 mg/L against Staphylococcus aureus [4]; 16 mg/L against Micrococcus luteus; 16 mg/L against Enterococcus faecalis [5]; 4 mg/L against Bacillus cereus. This molecule gave a minimal inhibitory concentration (MIC) in the data set with Bacillus subtilis of 8 mg/L.
Take `O=C1O/C(=C\c2ccc(O)c(Br)c2)C(c2ccc(O)c(Br)c2)=C1C(=O)c1cccs1`: the MIC with Staphylococcus aureus [2] came to 16 mg/L (≈ 29.2 µM); in the data set with Enterococcus faecalis [3] it was 32 mg/L (≈ 58.4 µM); against Staphylococcus aureus [4], 8 mg/L (≈ 14.6 µM); against Micrococcus luteus it was 8 mg/L (≈ 14.6 µM); with Enterococcus faecalis [5], 32 mg/L (≈ 58.4 µM); in the data set on Bacillus cereus it was 4 mg/L (≈ 7.3 µM). The molecule also displayed a minimal inhibitory concentration (MIC) against Bacillus subtilis of 8 mg/L (≈ 14.6 µM).
For `O=C1O/C(=C\c2cccs2)C(c2cc(Br)c(O)c(Br)c2)=C1C(=O)c1cc(Br)c(O)c(Br)c1`, the minimum inhibitory concentration (MIC) worked out at 256 mg/L (≈ 363 µM) in the data set on Staphylococcus aureus [2]; 32 mg/L (≈ 45.3 µM) in the data set on Enterococcus faecalis [3]; 32 mg/L (≈ 45.3 µM) with Staphylococcus aureus [4]; 128 mg/L (≈ 181 µM) in the data set with Micrococcus luteus; 64 mg/L (≈ 90.7 µM) in the data set on Enterococcus faecalis [5]; 64 mg/L (≈ 90.7 µM) with Bacillus cereus. Also, it took 32 mg/L (≈ 45.3 µM) to inhibit growth in the data set with Bacillus subtilis (MIC).
Consider `O=C1O/C(=C\c2ccco2)C(c2ccc(O)c(Br)c2)=C1C(=O)c1ccc(O)c(Br)c1`, for which the minimum inhibitory concentration (MIC) with Staphylococcus aureus [2] came out at 64 mg/L (≈ 120 µM); against Enterococcus faecalis [3], 128 mg/L (≈ 241 µM); in the data set on Staphylococcus aureus [4], 32 mg/L (≈ 60.1 µM); in the data set on Micrococcus luteus it was 32 mg/L (≈ 60.1 µM); against Enterococcus faecalis [5], 128 mg/L (≈ 241 µM); in the data set on Bacillus cereus, 32 mg/L (≈ 60.1 µM). Moreover, in the data set with Bacillus subtilis, inhibition of growth (MIC) required 32 mg/L (≈ 60.1 µM).
Turning to `O=C1O/C(=C\c2cccs2)C(c2ccc(O)c(Br)c2)=C1C(=O)c1cc(Br)c(O)c(Br)c1`, the MIC in the data set on Staphylococcus aureus [2] is 32 mg/L (≈ 51 µM); against Enterococcus faecalis [3], 32 mg/L (≈ 51 µM); with Staphylococcus aureus [4], 8 mg/L (≈ 12.8 µM); against Micrococcus luteus, 32 mg/L (≈ 51 µM); with Enterococcus faecalis [5] it was 32 mg/L (≈ 51 µM); against Bacillus cereus, 8 mg/L (≈ 12.8 µM). In the data set with Bacillus subtilis, this molecule came in with an MIC of 4 mg/L (≈ 6.38 µM).
Turning to `CN[C@H](CC(C)C)C(=O)N[C@H]1C(=O)N[C@@H](CC(N)=O)C(=O)N[C@H]2C(=O)N[C@H]3C(=O)N[C@H](C(=O)N[C@H](C(=O)O)c4cc(O)cc(O)c4-c4cc3ccc4O)[C@H](O)c3ccc(c(Cl)c3)Oc3cc2cc(c3O[C@@H]2O[C@H](CO)[C@@H](O)[C@H](O)[C@H]2O[C@H]2C[C@](C)(N)[C@H](O)[C@H](C)O2)Oc2ccc(cc2Cl)[C@H]1O` [VANCOMYCIN], the results for the MIC with Enterococcus faecalis [3], with Micrococcus luteus and in the data set with Bacillus subtilis were over 64 mg/L, at most 0.13 mg/L and 0.5 mg/L (≈ 0.345 µM), respectively.
For the molecule `O=C1O/C(=C\c2c[nH]c3ccccc23)C(c2ccc(O)c(Br)c2)=C1C(=O)c1ccc(O)c(Br)c1`, in the data set on HaCaT [6], the Activity result is given as “Non-Toxic”. The MIC in the data set with Staphylococcus aureus [2] was found to be 4 mg/L (≈ 6.88 µM); with Enterococcus faecalis [3] it was 8 mg/L (≈ 13.8 µM); in the data set with Staphylococcus aureus [4] it was 2 mg/L (≈ 3.44 µM); against Micrococcus luteus, 8 mg/L (≈ 13.8 µM); in the data set with Enterococcus faecalis [5] it was 8 mg/L (≈ 13.8 µM); against Bacillus cereus it was 4 mg/L (≈ 6.88 µM). In the data set with Bacillus subtilis, this molecule returned an MIC of 8 mg/L (≈ 13.8 µM).
Turning to GENTAMICIN, the MIC against Staphylococcus aureus [2] is over 64 mg/L; in the data set on Enterococcus faecalis [3] it was 8 mg/L; with Micrococcus luteus it was 0.25 mg/L; in the data set with Enterococcus faecalis [5], 8 mg/L; in the data set with Bacillus cereus, 0.25 mg/L; with Bacillus subtilis, 0.25 mg/L.
Consider `O=C1O/C(=C\c2ccco2)C(c2cc(Br)c(O)c(Br)c2)=C1C(=O)c1ccco1`, for which the MIC is 128 mg/L (≈ 253 µM) in the data set on Staphylococcus aureus [2]; 256 mg/L (≈ 506 µM) in the data set on Enterococcus faecalis [3]; 64 mg/L (≈ 126 µM) against Staphylococcus aureus [4]; 256 mg/L (≈ 506 µM) in the data set on Micrococcus luteus; 256 mg/L (≈ 506 µM) against Enterococcus faecalis [5]; 128 mg/L (≈ 253 µM) in the data set with Bacillus cereus. The same molecule came in with an MIC in the data set with Bacillus subtilis of 256 mg/L (≈ 506 µM).
As to `O=C1O/C(=C\c2cc(Br)c(O)c(Br)c2)C(c2cc(Br)c(O)c(Br)c2)=C1C(=O)c1ccco1`, the MIC in the data set on Staphylococcus aureus [2] came to 64 mg/L (≈ 92.8 µM); with Enterococcus faecalis [3] it was 64 mg/L (≈ 92.8 µM); against Staphylococcus aureus [4], 32 mg/L (≈ 46.4 µM); in the data set with Micrococcus luteus, 32 mg/L (≈ 46.4 µM); in the data set with Enterococcus faecalis [5], 128 mg/L (≈ 186 µM); against Bacillus cereus it was 16 mg/L (≈ 23.2 µM). The molecule also gave an MIC against Bacillus subtilis of 32 mg/L (≈ 46.4 µM).
Consider `O=C1O/C(=C\c2cc(Br)c(O)c(Br)c2)C(c2ccco2)=C1C(=O)c1cc(Br)c(O)c(Br)c1`, for which the MIC against Staphylococcus aureus [2] came out at 64 mg/L (≈ 92.8 µM); in the data set on Enterococcus faecalis [3], 64 mg/L (≈ 92.8 µM); in the data set on Staphylococcus aureus [4] it was 32 mg/L (≈ 46.4 µM); against Micrococcus luteus, 16 mg/L (≈ 23.2 µM); against Enterococcus faecalis [5] it was 32 mg/L (≈ 46.4 µM); against Bacillus cereus, 16 mg/L (≈ 23.2 µM). For the same molecule, in the data set on Bacillus subtilis, the MIC came out at 16 mg/L (≈ 23.2 µM).
As for `O=C1O/C(=C\c2ccc(O)c(Br)c2)C(c2cc(Br)c(O)c(Br)c2)=C1C(=O)c1cc(Br)c(O)c(Br)c1` [CADIOLIDE D], the MIC in the data set with Staphylococcus aureus [2] was found to be 64 mg/L (≈ 80.5 µM); in the data set on Enterococcus faecalis [3] it was 64 mg/L (≈ 80.5 µM); in the data set on Staphylococcus aureus [4], 32 mg/L (≈ 40.3 µM); with Micrococcus luteus, 64 mg/L (≈ 80.5 µM); with Enterococcus faecalis [5], 64 mg/L (≈ 80.5 µM); against Bacillus cereus, 32 mg/L (≈ 40.3 µM). Moreover, 64 mg/L (≈ 80.5 µM) was the least that counted as inhibitory against Bacillus subtilis (MIC).
With `Cn1cc(/C=C2\OC(=O)C(C(=O)c3ccc(O)c(Br)c3)=C2c2ccc(O)c(Br)c2)c2ccccc21`, in the data set on HaCaT [6], the Activity entry is reported as “Non-Toxic”. The minimum inhibitory concentration (MIC) against Staphylococcus aureus [2] is 8 mg/L (≈ 13.4 µM); in the data set with Enterococcus faecalis [3], 8 mg/L (≈ 13.4 µM); with Staphylococcus aureus [4], 2 mg/L (≈ 3.36 µM); against Micrococcus luteus, 2 mg/L (≈ 3.36 µM); against Enterococcus faecalis [5], 16 mg/L (≈ 26.9 µM); with Bacillus cereus, 2 mg/L (≈ 3.36 µM). The same molecule came in with an MIC in the data set with Bacillus subtilis of 4 mg/L (≈ 6.72 µM).
Regarding `O=C1O/C(=C\c2ccco2)C(c2ccco2)=C1C(=O)c1cc(Br)c(O)c(Br)c1`, the MIC against Staphylococcus aureus [2] turned out to be 64 mg/L (≈ 126 µM); against Enterococcus faecalis [3], 64 mg/L (≈ 126 µM); in the data set on Staphylococcus aureus [4], 16 mg/L (≈ 31.6 µM); with Micrococcus luteus, 32 mg/L (≈ 63.2 µM); against Enterococcus faecalis [5], 64 mg/L (≈ 126 µM); with Bacillus cereus, 16 mg/L (≈ 31.6 µM). The molecule further displayed an MIC against Bacillus subtilis of 32 mg/L (≈ 63.2 µM).
Regarding `O=C1O/C(=C\c2ccc(O)c(Br)c2)C(c2ccc(O)c(Br)c2)=C1C(=O)c1ccc(O)c(Br)c1`, in the data set on HaCaT [6], the Activity result is on record as “Non-Toxic”. Further, the MIC is 8 mg/L (≈ 12.6 µM) in the data set on Staphylococcus aureus [2]; 32 mg/L (≈ 50.2 µM) in the data set with Enterococcus faecalis [3]; 8 mg/L (≈ 12.6 µM) in the data set on Staphylococcus aureus [4]; 8 mg/L (≈ 12.6 µM) against Micrococcus luteus; 16 mg/L (≈ 25.1 µM) with Enterococcus faecalis [5]; 8 mg/L (≈ 12.6 µM) in the data set with Bacillus cereus. For the same molecule, in the data set on Bacillus subtilis, the lowest concentration to inhibit growth (MIC) was 16 mg/L (≈ 25.1 µM).
In the case of `O=C1O/C(=C\c2cc(Br)c(O)c(Br)c2)C(c2cccs2)=C1C(=O)c1cc(Br)c(O)c(Br)c1`, the MIC with Staphylococcus aureus [2] stood at 16 mg/L (≈ 22.7 µM); with Enterococcus faecalis [3], 8 mg/L (≈ 11.3 µM); in the data set with Staphylococcus aureus [4] it was 16 mg/L (≈ 22.7 µM); against Micrococcus luteus, 8 mg/L (≈ 11.3 µM); in the data set on Enterococcus faecalis [5], 16 mg/L (≈ 22.7 µM); against Bacillus cereus, 8 mg/L (≈ 11.3 µM). In addition, it took 8 mg/L (≈ 11.3 µM) to inhibit growth against Bacillus subtilis (MIC).
